Data published in ChEMBL document CHEMBL1806384, “Identification of benzofuran-4,5-diones as novel and selective non-hydroxamic acid, non-peptidomimetic based inhibitors of human peptide deformylase” (Bioorg Med Chem Lett, 2011).

Molecular target: T1, Interstitial collagenase (Homo sapiens) (UniProt P03956)
T1 sequence (whole entry): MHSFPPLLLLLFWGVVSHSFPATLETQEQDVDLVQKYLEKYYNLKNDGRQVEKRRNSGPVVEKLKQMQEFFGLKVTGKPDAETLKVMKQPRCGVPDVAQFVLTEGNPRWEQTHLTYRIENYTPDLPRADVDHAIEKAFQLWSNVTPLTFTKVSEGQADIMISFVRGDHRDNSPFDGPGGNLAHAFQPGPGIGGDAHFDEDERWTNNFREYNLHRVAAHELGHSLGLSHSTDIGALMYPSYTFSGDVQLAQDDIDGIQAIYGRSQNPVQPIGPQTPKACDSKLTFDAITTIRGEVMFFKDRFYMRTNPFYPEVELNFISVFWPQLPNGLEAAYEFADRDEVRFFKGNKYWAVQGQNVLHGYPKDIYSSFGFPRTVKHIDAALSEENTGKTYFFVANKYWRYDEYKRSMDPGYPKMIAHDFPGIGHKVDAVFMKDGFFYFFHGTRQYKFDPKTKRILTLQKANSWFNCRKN
Experiment: Inhibition of human recombinant MMP1 at 100 uM after 1 hr by fluorescence polarization based competition assay

Question: With `COc1ccc(C(=O)c2coc3c2C(=O)C(=O)C(Br)=C3)cc1` as the compound, how does the inhibition read?
Answer: 26%

Question: For `COc1ccc(C(=O)c2coc3c2C(=O)C(=O)C=C3Cl)cc1`, which inhibition is on record?
Answer: 10%

Question: For `COc1ccc(C(=O)c2coc3c2C(=O)C(=O)C=C3)cc1`, which inhibition is on record?
Answer: 6%

Question: With `COc1ccc(C(=O)c2coc3c2C(=O)C(=O)C=C3Br)cc1` as the compound, how does the inhibition read?
Answer: 8%

Tested on: Y79
Experiment: Cytotoxicity against human Y79 cells
Format: functional, cell-based

Question: Which IC50 does the source give for `COc1ccc(C(=O)c2coc3c2C(=O)C(=O)C(Br)=C3)cc1` here?
Answer: 100 µM

Question: Which IC50 does the source give for `COc1ccc(C(=O)c2coc3c2C(=O)C(=O)C=C3Cl)cc1` here?
Answer: 74 µM

Question: For `COc1ccc(C(=O)c2coc3c2C(=O)C(=O)C=C3)cc1`, which IC50 is on record?
Answer: 31 µM

Question: Which IC50 does the source give for `COc1ccc(C(=O)c2coc3c2C(=O)C(=O)C=C3Br)cc1` here?
Answer: 63 µM

Molecular target: T2, Peptide deformylase (Escherichia coli) (UniProt Q9JN24)
T2 sequence (whole entry): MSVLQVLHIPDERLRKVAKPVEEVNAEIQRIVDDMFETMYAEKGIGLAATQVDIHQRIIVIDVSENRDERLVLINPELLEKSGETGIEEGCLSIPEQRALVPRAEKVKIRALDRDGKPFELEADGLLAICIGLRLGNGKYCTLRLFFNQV
Experiment: Inhibition of Escherichia coli peptide deformylase at 100 uM after 1 hr by fluorescence polarization based competition assay

Question: With `COc1ccc(C(=O)c2coc3c2C(=O)C(=O)C(Br)=C3)cc1` as the compound, how does the inhibition read?
Answer: 5%

Question: For `COc1ccc(C(=O)c2coc3c2C(=O)C(=O)C=C3Cl)cc1`, which inhibition is on record?
Answer: 13%

Question: Which inhibition does the source give for `COc1ccc(C(=O)c2coc3c2C(=O)C(=O)C=C3)cc1` here?
Answer: 24%

Question: For `COc1ccc(C(=O)c2coc3c2C(=O)C(=O)C=C3Br)cc1`, which inhibition is on record?
Answer: 26%

Tested on: not listed separately
Experiment: Cytotoxicity against human Meso47 cells
Format: functional, cell-based

Question: With `COc1ccc(C(=O)c2coc3c2C(=O)C(=O)C=C3Cl)cc1` as the compound, how does the IC50 read?
Answer: 100 µM

Question: For `COc1ccc(C(=O)c2coc3c2C(=O)C(=O)C=C3)cc1`, which IC50 is on record?
Answer: 100 µM

Question: For `COc1ccc(C(=O)c2coc3c2C(=O)C(=O)C=C3Br)cc1`, which IC50 is on record?
Answer: 100 µM

Molecular target: T3, Peptide deformylase, mitochondrial (Homo sapiens) (UniProt Q9HBH1)
T3 sequence (whole entry): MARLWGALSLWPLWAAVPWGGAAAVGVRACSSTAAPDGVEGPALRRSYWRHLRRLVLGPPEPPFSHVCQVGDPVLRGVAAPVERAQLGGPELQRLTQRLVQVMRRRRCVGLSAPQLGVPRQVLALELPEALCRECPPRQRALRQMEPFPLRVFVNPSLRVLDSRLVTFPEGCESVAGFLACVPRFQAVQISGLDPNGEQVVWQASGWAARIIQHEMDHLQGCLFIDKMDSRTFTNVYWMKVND
Experiment: Inhibition of human peptide deformylase at 100 uM after 1 hr by fluorescence polarization based competition assay

Question: With `COc1ccc(C(=O)c2coc3c2C(=O)C(=O)C(Br)=C3)cc1` as the compound, how does the inhibition read?
Answer: 100%

Question: For `COc1ccc(C(=O)c2coc3c2C(=O)C(=O)C=C3Cl)cc1`, which inhibition is on record?
Answer: 100%

Question: For `COc1ccc(C(=O)c2coc3c2C(=O)C(=O)C=C3)cc1`, which inhibition is on record?
Answer: 100%

Question: With `COc1ccc(C(=O)c2coc3c2C(=O)C(=O)C=C3Br)cc1` as the compound, how does the inhibition read?
Answer: 100%

Molecular target: T4, Peptide deformylase (Escherichia coli, UniProt Q9JN24)
T4 sequence (Q9JN24 whole entry): T2 sequence (whole entry)
Experiment: Inhibition of Escherichia coli peptide deformylase after 1 hr by fluorescence polarization based competition assay

Question: For `COc1ccc(C(=O)c2coc3c2C(=O)C(=O)C(Br)=C3)cc1`, which IC50 is on record?
Answer: > 100 µM

Question: For `COc1ccc(C(=O)c2coc3c2C(=O)C(=O)C=C3Cl)cc1`, which IC50 is on record?
Answer: > 100 µM

Question: With `COc1ccc(C(=O)c2coc3c2C(=O)C(=O)C=C3)cc1` as the compound, how does the IC50 read?
Answer: > 100 µM

Question: For `COc1ccc(C(=O)c2coc3c2C(=O)C(=O)C=C3Br)cc1`, which IC50 is on record?
Answer: > 100 µM

Tested on: not listed separately
Experiment: Cytotoxicity against human ALL3 cells
Format: functional, cell-based

Question: For `COc1ccc(C(=O)c2coc3c2C(=O)C(=O)C(Br)=C3)cc1`, which IC50 is on record?
Answer: 48 µM

Question: Which IC50 does the source give for `COc1ccc(C(=O)c2coc3c2C(=O)C(=O)C=C3Cl)cc1` here?
Answer: 47 µM

Question: With `COc1ccc(C(=O)c2coc3c2C(=O)C(=O)C=C3)cc1` as the compound, how does the IC50 read?
Answer: 29 µM

Question: Which IC50 does the source give for `COc1ccc(C(=O)c2coc3c2C(=O)C(=O)C=C3Br)cc1` here?
Answer: 35 µM

Tested on: MOLT-3
Experiment: Cytotoxicity against human MOLT3 cells
Format: functional, cell-based

Question: For `COc1ccc(C(=O)c2coc3c2C(=O)C(=O)C(Br)=C3)cc1`, which IC50 is on record?
Answer: 4 µM

Question: With `COc1ccc(C(=O)c2coc3c2C(=O)C(=O)C=C3Cl)cc1` as the compound, how does the IC50 read?
Answer: 11 µM

Question: With `COc1ccc(C(=O)c2coc3c2C(=O)C(=O)C=C3)cc1` as the compound, how does the IC50 read?
Answer: 9.1 µM

Question: With `COc1ccc(C(=O)c2coc3c2C(=O)C(=O)C=C3Br)cc1` as the compound, how does the IC50 read?
Answer: 11 µM

Tested on: HL-60
Experiment: Cytotoxicity against human vincristine-resistant HL60 cells
Format: functional, cell-based

Question: For `COc1ccc(C(=O)c2coc3c2C(=O)C(=O)C=C3)cc1`, which IC50 is on record?
Answer: 27 µM

Question: Which IC50 does the source give for `COc1ccc(C(=O)c2coc3c2C(=O)C(=O)C=C3Br)cc1` here?
Answer: 38 µM

Tested on: not listed separately
Experiment: Cytotoxicity against human CWR22 cells
Format: functional, cell-based

Question: With `COc1ccc(C(=O)c2coc3c2C(=O)C(=O)C=C3Cl)cc1` as the compound, how does the IC50 read?
Answer: 59 µM

Question: Which IC50 does the source give for `COc1ccc(C(=O)c2coc3c2C(=O)C(=O)C=C3)cc1` here?
Answer: 35 µM

Question: For `COc1ccc(C(=O)c2coc3c2C(=O)C(=O)C=C3Br)cc1`, which IC50 is on record?
Answer: 46 µM

Tested on: Jurkat
Experiment: Cytotoxicity against human Jurkat cells
Format: functional, cell-based

Question: Which IC50 does the source give for `COc1ccc(C(=O)c2coc3c2C(=O)C(=O)C(Br)=C3)cc1` here?
Answer: 20 µM

Question: Which IC50 does the source give for `COc1ccc(C(=O)c2coc3c2C(=O)C(=O)C=C3Cl)cc1` here?
Answer: 13 µM

Question: For `COc1ccc(C(=O)c2coc3c2C(=O)C(=O)C=C3)cc1`, which IC50 is on record?
Answer: 8.9 µM

Question: With `COc1ccc(C(=O)c2coc3c2C(=O)C(=O)C=C3Br)cc1` as the compound, how does the IC50 read?
Answer: 12 µM

Molecular target: T3, Peptide deformylase, mitochondrial (Homo sapiens)
Experiment: Inhibition of human peptide deformylase at 10 uM after 1 hr by fluorescence polarization based competition assay

Question: For `COc1ccc(C(=O)c2coc3c2C(=O)C(=O)C(Br)=C3)cc1`, which inhibition is on record?
Answer: 90%

Tested on: HL-60
Experiment: Cytotoxicity against human HL60 cells
Format: functional, cell-based

Question: For `COc1ccc(C(=O)c2coc3c2C(=O)C(=O)C(Br)=C3)cc1`, which IC50 is on record?
Answer: 48 µM

Question: With `COc1ccc(C(=O)c2coc3c2C(=O)C(=O)C=C3Cl)cc1` as the compound, how does the IC50 read?
Answer: 17 µM

Question: For `COc1ccc(C(=O)c2coc3c2C(=O)C(=O)C=C3)cc1`, which IC50 is on record?
Answer: 17 µM

Question: With `COc1ccc(C(=O)c2coc3c2C(=O)C(=O)C=C3Br)cc1` as the compound, how does the IC50 read?
Answer: 10 µM

Tested on: HEK293
Experiment: Cytotoxicity against human HEK293 cells
Format: cell-based

Question: For `COc1ccc(C(=O)c2coc3c2C(=O)C(=O)C(Br)=C3)cc1`, which IC50 is on record?
Answer: 54 µM

Question: For `COc1ccc(C(=O)c2coc3c2C(=O)C(=O)C=C3Cl)cc1`, which IC50 is on record?
Answer: 40 µM

Question: Which IC50 does the source give for `COc1ccc(C(=O)c2coc3c2C(=O)C(=O)C=C3)cc1` here?
Answer: 21 µM

Molecular target: T5, Peptide deformylase, mitochondrial (Homo sapiens, UniProt Q9HBH1)
T5 sequence (Q9HBH1 whole entry): T3 sequence (whole entry)
Experiment: Inhibition of human peptide deformylase after 1 hr by fluorescence polarization based competition assay

Question: With `COc1ccc(C(=O)c2coc3c2C(=O)C(=O)C(Br)=C3)cc1` as the compound, how does the IC50 read?
Answer: 32 µM

Question: Which IC50 does the source give for `COc1ccc(C(=O)c2coc3c2C(=O)C(=O)C=C3Cl)cc1` here?
Answer: 16 µM

Question: For `COc1ccc(C(=O)c2coc3c2C(=O)C(=O)C=C3)cc1`, which IC50 is on record?
Answer: 34 µM

Question: Which IC50 does the source give for `COc1ccc(C(=O)c2coc3c2C(=O)C(=O)C=C3Br)cc1` here?
Answer: 15 µM

Molecular target: T6, Aminopeptidase N (Sus scrofa) (UniProt P15145)
T6 sequence (whole entry): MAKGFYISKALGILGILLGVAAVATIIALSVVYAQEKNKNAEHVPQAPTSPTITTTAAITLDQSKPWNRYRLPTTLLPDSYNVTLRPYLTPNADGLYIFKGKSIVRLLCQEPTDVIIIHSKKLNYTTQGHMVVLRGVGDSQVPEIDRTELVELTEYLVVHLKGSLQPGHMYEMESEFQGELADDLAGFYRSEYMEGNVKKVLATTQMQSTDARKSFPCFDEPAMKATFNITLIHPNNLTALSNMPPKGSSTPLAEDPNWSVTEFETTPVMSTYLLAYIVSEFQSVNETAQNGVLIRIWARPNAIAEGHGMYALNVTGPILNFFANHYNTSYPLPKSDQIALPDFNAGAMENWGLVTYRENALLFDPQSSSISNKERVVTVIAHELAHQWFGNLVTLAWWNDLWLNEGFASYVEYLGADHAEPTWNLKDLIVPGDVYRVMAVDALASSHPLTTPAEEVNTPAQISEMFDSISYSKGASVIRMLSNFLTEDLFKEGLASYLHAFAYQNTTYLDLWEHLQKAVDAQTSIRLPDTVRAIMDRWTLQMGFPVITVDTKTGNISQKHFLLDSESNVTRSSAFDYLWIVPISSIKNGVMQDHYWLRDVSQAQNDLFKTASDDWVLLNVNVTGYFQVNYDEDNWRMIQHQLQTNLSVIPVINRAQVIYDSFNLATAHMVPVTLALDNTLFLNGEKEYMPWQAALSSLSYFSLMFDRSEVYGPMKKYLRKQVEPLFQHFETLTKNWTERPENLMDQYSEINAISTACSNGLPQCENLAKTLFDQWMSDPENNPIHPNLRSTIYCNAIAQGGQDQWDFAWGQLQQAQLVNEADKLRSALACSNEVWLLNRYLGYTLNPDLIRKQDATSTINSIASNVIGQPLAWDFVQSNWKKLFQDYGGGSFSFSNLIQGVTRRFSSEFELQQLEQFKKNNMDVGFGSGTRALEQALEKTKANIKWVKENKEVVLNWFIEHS
Experiment: Inhibition of porcine kidney microsomal aminopeptidase N at 100 uM after 1 hr by fluorescence polarization based competition assay

Question: Which inhibition does the source give for `COc1ccc(C(=O)c2coc3c2C(=O)C(=O)C(Br)=C3)cc1` here?
Answer: 22%

Question: Which inhibition does the source give for `COc1ccc(C(=O)c2coc3c2C(=O)C(=O)C=C3Cl)cc1` here?
Answer: 68%

Question: Which inhibition does the source give for `COc1ccc(C(=O)c2coc3c2C(=O)C(=O)C=C3)cc1` here?
Answer: 4%

Question: Which inhibition does the source give for `COc1ccc(C(=O)c2coc3c2C(=O)C(=O)C=C3Br)cc1` here?
Answer: 64%
